Like-named read-outs stand apart in the source and are kept apart here.
Experiments:
ABL^F317I = ABL^F317I (Homo sapiens, UniProt P00519, F317I); assay: In vitro enzymatic activity, imatinib-resistant mutant panel; format: biochemical
DDR1 = DDR1 (Homo sapiens, UniProt Q08345); assay: Kinase selectivity test against DDR1; format: biochemical
Procedure: On the other hand, to gain certain insights about the kinase selectivity of this array of ureidobenzothiazoles, compounds 2a and 2b were tested against DDR1 (Figure 4). Discoidin domain receptors (DDR1/2) are transmembrane receptor tyrosine kinases (RTKs), activated by fibrillar collagens. DDR1/2 and BCR-ABL share almost 61% sequence similarities in their ATP binding domains. […] This observation points out the merit of these ureidobenzothiazoles over the known BCR-ABL inhibitors in achieving exceptional selectivity towards BCR-ABL.

EKVX = assay: NCI-60 five-dose SRB assay; format: cell-based; details: Homo sapiens, non-small cell lung cancer
MDA-MB-435 = system: MDA-MB-435; design: method as in earlier work; details: imatinib mesylate NSC 743414, NCI data; cited from earlier work
786-0 = system: 786-0; design: method as in earlier work; details: imatinib mesylate NSC 743414, NCI data; cited from earlier work
HL-60(TB) = system: HL-60(TB); design: method as in earlier work; details: imatinib mesylate NSC 743414, NCI data; cited from earlier work
HOP-92 = system: HOP-92; design: method as in earlier work; details: imatinib mesylate NSC 743414, NCI data; cited from earlier work
HT29 = system: HT29; design: method as in earlier work; details: imatinib mesylate NSC 743414, NCI data; cited from earlier work
LOX IMVI = system: LOX IMVI; design: method as in earlier work; details: imatinib mesylate NSC 743414, NCI data; cited from earlier work
NCI/ADR-RES = system: NCI/ADR-RES; design: method as in earlier work; details: imatinib mesylate NSC 743414, NCI data; cited from earlier work
HCT-15 = system: HCT-15; design: method as in earlier work; details: imatinib mesylate NSC 743414, NCI data; cited from earlier work
BT-549 = system: BT-549; design: method as in earlier work; details: imatinib mesylate NSC 743414, NCI data; cited from earlier work
HOP-62 [1] = system: HOP-62; design: method as in earlier work; details: imatinib mesylate NSC 743414, NCI data; cited from earlier work
NCI-H522 = system: NCI-H522; design: method as in earlier work; details: imatinib mesylate NSC 743414, NCI data; cited from earlier work
SK-MEL-5 = system: SK-MEL-5; design: method as in earlier work; details: imatinib mesylate NSC 743414, NCI data; cited from earlier work
DU-145 = system: DU-145; design: method as in earlier work; details: imatinib mesylate NSC 743414, NCI data; cited from earlier work
HS 578T = system: HS 578T; design: method as in earlier work; details: imatinib mesylate NSC 743414, NCI data; cited from earlier work
SN12C = system: SN12C; design: method as in earlier work; details: imatinib mesylate NSC 743414, NCI data; cited from earlier work
MCF7 = system: MCF7; design: method as in earlier work; details: imatinib mesylate NSC 743414, NCI data; cited from earlier work
SR = system: SR; design: method as in earlier work; details: imatinib mesylate NSC 743414, NCI data; cited from earlier work
T-47D = system: T-47D; design: method as in earlier work; details: imatinib mesylate NSC 743414, NCI data; cited from earlier work
RXF 393 = system: RXF 393; design: method as in earlier work; details: imatinib mesylate NSC 743414, NCI data; cited from earlier work
HCC-2998 = system: HCC-2998; design: method as in earlier work; details: imatinib mesylate NSC 743414, NCI data; cited from earlier work
CAKI-1 = system: CAKI-1; design: method as in earlier work; details: imatinib mesylate NSC 743414, NCI data; cited from earlier work
NCI-H23 = system: NCI-H23; design: method as in earlier work; details: imatinib mesylate NSC 743414, NCI data; cited from earlier work
SK-MEL-28 = system: SK-MEL-28; design: method as in earlier work; details: imatinib mesylate NSC 743414, NCI data; cited from earlier work
SF-539 = system: SF-539; design: method as in earlier work; details: imatinib mesylate NSC 743414, NCI data; cited from earlier work
SK-MEL-2 = system: SK-MEL-2; design: method as in earlier work; details: imatinib mesylate NSC 743414, NCI data; cited from earlier work
NCI-H460 = system: NCI-H460; design: method as in earlier work; details: imatinib mesylate NSC 743414, NCI data; cited from earlier work
PC-3 = system: PC-3; design: method as in earlier work; details: imatinib mesylate NSC 743414, NCI data; cited from earlier work
SF-295 = system: SF-295; design: method as in earlier work; details: imatinib mesylate NSC 743414, NCI data; cited from earlier work
MOLT-4 = system: MOLT-4; design: method as in earlier work; details: imatinib mesylate NSC 743414, NCI data; cited from earlier work
A549/ATCC = system: A549/ATCC; design: method as in earlier work; details: imatinib mesylate NSC 743414, NCI data; cited from earlier work
NCI 60-cell line panel = system: NCI 60-cell line panel; design: method as in earlier work; details: COLO205, HCC-2998, HCT-116 and HCT-15 colon cancer cells; cited from earlier work
OVCAR-4 = system: OVCAR-4; design: method as in earlier work; details: imatinib mesylate NSC 743414, NCI data; cited from earlier work
SNB-19 = system: SNB-19; design: method as in earlier work; details: imatinib mesylate NSC 743414, NCI data; cited from earlier work
CCRF-CEM = system: CCRF-CEM; design: method as in earlier work; details: imatinib mesylate NSC 743414, NCI data; cited from earlier work
MALME-3M = system: MALME-3M; design: method as in earlier work; details: imatinib mesylate NSC 743414, NCI data; cited from earlier work
SW-620 = system: SW-620; design: method as in earlier work; details: imatinib mesylate NSC 743414, NCI data; cited from earlier work
OVCAR-5 = system: OVCAR-5; design: method as in earlier work; details: imatinib mesylate NSC 743414, NCI data; cited from earlier work
SNB-75 = system: SNB-75; design: method as in earlier work; details: imatinib mesylate NSC 743414, NCI data; cited from earlier work
U251 = system: U251; design: method as in earlier work; details: imatinib mesylate NSC 743414, NCI data; cited from earlier work
SK-OV-3 = system: SK-OV-3; design: method as in earlier work; details: imatinib mesylate NSC 743414, NCI data; cited from earlier work
RPMI-8226 = system: RPMI-8226; design: method as in earlier work; details: imatinib mesylate NSC 743414, NCI data; cited from earlier work
HOP-62 [2] = assay: NCI-60 five-dose SRB assay; format: cell-based; details: Homo sapiens; HOP-62, non-small cell lung cancer

DDR1, sequence (Q08345 19-913, species assumed): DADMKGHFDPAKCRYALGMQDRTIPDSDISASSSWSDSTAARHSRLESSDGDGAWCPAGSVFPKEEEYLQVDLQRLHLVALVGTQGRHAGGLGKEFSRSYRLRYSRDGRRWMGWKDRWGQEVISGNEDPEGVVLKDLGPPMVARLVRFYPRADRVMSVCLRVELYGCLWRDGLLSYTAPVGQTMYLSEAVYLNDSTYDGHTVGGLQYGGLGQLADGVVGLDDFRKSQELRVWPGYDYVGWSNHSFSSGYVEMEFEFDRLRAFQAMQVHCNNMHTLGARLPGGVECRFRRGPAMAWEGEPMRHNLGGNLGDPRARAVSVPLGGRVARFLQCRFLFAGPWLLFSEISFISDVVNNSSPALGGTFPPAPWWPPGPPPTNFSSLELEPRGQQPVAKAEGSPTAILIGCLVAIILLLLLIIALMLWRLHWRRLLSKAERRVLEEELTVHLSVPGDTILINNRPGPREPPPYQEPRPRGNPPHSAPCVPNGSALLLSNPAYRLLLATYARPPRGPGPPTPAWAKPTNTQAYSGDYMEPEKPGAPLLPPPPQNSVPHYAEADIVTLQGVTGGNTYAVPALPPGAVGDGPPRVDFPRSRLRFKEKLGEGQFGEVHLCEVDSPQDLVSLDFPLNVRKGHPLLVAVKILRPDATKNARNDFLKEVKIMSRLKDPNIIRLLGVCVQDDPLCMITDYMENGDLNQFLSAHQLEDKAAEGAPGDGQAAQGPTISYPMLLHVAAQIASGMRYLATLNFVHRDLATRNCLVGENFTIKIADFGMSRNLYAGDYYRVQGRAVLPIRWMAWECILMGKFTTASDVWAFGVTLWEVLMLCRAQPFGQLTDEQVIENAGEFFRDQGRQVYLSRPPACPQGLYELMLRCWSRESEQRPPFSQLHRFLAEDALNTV
ABL^F317I, sequence (P00519 whole entry F317I): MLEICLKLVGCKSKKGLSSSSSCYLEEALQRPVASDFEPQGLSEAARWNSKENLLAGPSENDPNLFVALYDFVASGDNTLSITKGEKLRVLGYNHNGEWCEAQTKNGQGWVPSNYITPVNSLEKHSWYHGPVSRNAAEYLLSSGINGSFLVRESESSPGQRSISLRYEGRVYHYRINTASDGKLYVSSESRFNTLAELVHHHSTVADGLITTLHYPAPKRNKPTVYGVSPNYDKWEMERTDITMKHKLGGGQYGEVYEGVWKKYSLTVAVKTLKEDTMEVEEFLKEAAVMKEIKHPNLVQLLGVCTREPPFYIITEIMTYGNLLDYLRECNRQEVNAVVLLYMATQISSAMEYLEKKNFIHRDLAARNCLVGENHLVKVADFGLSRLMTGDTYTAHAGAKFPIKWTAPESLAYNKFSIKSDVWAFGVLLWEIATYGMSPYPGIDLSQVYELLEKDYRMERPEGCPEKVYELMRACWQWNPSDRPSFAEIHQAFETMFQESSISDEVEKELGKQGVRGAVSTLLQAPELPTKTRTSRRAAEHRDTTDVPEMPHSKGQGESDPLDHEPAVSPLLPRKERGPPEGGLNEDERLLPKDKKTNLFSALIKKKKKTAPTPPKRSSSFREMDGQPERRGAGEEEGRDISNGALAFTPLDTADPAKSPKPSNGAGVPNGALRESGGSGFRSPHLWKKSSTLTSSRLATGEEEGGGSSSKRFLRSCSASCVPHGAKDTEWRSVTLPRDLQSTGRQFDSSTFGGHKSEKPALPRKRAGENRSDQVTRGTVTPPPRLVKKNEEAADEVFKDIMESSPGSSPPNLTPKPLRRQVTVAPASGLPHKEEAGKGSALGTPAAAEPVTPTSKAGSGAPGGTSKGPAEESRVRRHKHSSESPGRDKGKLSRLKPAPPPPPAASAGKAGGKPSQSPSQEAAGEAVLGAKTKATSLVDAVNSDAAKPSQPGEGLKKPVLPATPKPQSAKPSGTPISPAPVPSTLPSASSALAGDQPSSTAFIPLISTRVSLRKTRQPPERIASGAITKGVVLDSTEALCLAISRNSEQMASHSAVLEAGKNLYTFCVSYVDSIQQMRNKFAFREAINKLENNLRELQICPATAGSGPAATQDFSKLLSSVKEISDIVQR

Compound: CCN1CCN(c2ccc(NC(=O)Nc3nc4ccc(-c5ccccc5OC)cc4s3)cc2)CC1 [Compound 2b]
- IC50 (ABL^F317I): 0.00516 µM
- IC50 (DDR1): 0.199 µM
- GI50 (EKVX): 1.51 µM

Compound: Cc1ccc(NC(=O)c2ccc(CN3CCN(C)CC3)cc2)cc1Nc1nccc(-c2cccnc2)n1 [Imatinib]
- GI50 (MDA-MB-435): 17.9 µM
- GI50 (786-0): 16 µM
- GI50 (HL-60(TB)): 13.5 µM
- GI50 (HOP-92): 13.3 µM
- GI50 (HT29): 3.97 µM
- GI50 (LOX IMVI): 18.1 µM
- GI50 (NCI/ADR-RES): 23 µM
- GI50 (HCT-15): 19.9 µM
- GI50 (BT-549): 16.1 µM
- GI50 (HOP-62 [1]): 21.5 µM
- GI50 (NCI-H522): 16.4 µM
- GI50 (SK-MEL-5): 12.1 µM
- GI50 (DU-145): 18.8 µM
- GI50 (HS 578T): 14.6 µM
- GI50 (SN12C): 33.2 µM
- GI50 (MCF7): 18.2 µM
- GI50 (SR): 7.14 µM
- GI50 (T-47D): 19.9 µM
- GI50 (RXF 393): 15.1 µM
- GI50 (HCC-2998): 21.2 µM
- GI50 (CAKI-1): 34 µM
- GI50 (NCI-H23): 15 µM
- GI50 (SK-MEL-28): 14.6 µM
- GI50 (SF-539): 10.6 µM
- GI50 (SK-MEL-2): 25 µM
- GI50 (NCI-H460): 16.2 µM
- GI50 (PC-3): 21.4 µM
- GI50 (SF-295): 19.8 µM
- GI50 (MOLT-4): 5.13 µM
- GI50 (A549/ATCC): 24.5 µM
- GI50 (NCI 60-cell line panel): 12.6 to 21.2 µM
- GI50 (OVCAR-4): 20 µM
- GI50 (SNB-19): 38.6 µM
- GI50 (CCRF-CEM): 17 µM
- GI50 (MALME-3M): 16.3 µM
- GI50 (SW-620): 23.4 µM
- GI50 (OVCAR-5): 0.58 µM
- GI50 (SNB-75): 20.3 µM
- GI50 (U251): 18 µM
- GI50 (SK-OV-3): 28.9 µM
- GI50 (RPMI-8226): 6.05 µM

Compound: COc1ccccc1-c1ccc2nc(NC(=O)Nc3cc(C(F)(F)F)cc(C(F)(F)F)c3)sc2c1 [Compound 2e]
- GI50 (HOP-62 [2]): 2.1 µM

From article PMC10026764, “Overcoming the imatinib-resistant BCR-ABL mutants with new ureidobenzothiazole chemotypes endowed with potent and broad-spectrum anticancer activity” (Journal of Enzyme Inhibition and Medicinal Chemistry, 2023)
